Here are results for 22 compounds from US8026257B2 (Bristol-Myers Squibb Company, priority 2007, dated 2011).

pIC50: −log10 of the molar value. Like-named read-outs stand apart in the source and are kept apart here. Where only a bound is given, the exact number is not on record here.

The target in one test is hSERT (Homo sapiens, UniProt P31645). The experiment in a line: SERT radioligand binding assay ([125I]RTI-55, HEK-hSERT membranes). To be noted: HEK-293 hSERT membranes, 260 pM [125I]RTI-55, 1 hour at room temperature; for pIC50: read-out: SERT IC50. The procedure:
(§1) NK-1 Binding assay. Crude membrane suspensions were prepared for the NK1 and SERT radioligand binding assays from U373 cells or recombinant HEK-293 cells expressing hSERT, respectively. Cells were harvested from T-175 flasks as follows. The medium is removed from the flasks and the cells rinsed with HBSS without Ca and without Mg. The cells are then incubated for 5-10 minutes in 10 mM Tris-Cl, pH 7.5, 5 mM EDTA before the cells are lifted with a combination of pipetting and scraping, as needed. To prepare membranes, the cell suspension is collected into centrifuge bottles and homogenized for 30 seconds with a Polytron homogenizer. The suspension is centrifuged for 30 min@32,000×g, 4° C., then the supernatant is decanted and the pellet resuspended and homogenized in 50 mM Tris-Cl, pH 7.5, 1 mM EDTA for 10 seconds. The suspension is then centrifuged again for 30 min@32,000×g, 4° C. The supernatant is decanted and the pellet resuspended in 50 mM Tris-Cl, pH 7.5, 1 mM EDTA and briefly homogenized. A Bradford assay (Bio-rad) is performed and the membrane preparation diluted to 2 mg/ml with 50 mM Tris-Cl, pH 7.5, 1 mM EDTA. Aliquots are prepared, and then frozen and stored at −80° C.
SERT radioligand binding assay. Compounds are dissolved in 100% DMSO at a concentration 100× the desired highest assay concentration, serially diluted 1:3 in 100% DMSO, and 0.4 ul/well of each solution is dispensed to a Nunc polypropylene, round bottom, 384 well plate. 100% inhibition is defined with 0.4 ul/well of 1 mM fluoxetine (Sigma F-132) dissolved in DMSO. 20 ul/well of a 2× HEK-hSERT membrane preparation (15 ug/ml in 50 mM Tris-Cl, pH 7.5, 120 mM NaCl, 5mM KCl) and 20 ul/well of a 2× radioligand solution (520 pM [^125I]RTI-55 (Perkin-Elmer NEX-272) in 50 mM Tris-Cl, pH 7.5, 120 mM NaCl, 5mM KCl) are added to each well and the reaction incubated for 1 hour at room temperature. The contents of the assay plate are then transferred to a Millipore MultiscreenHTs GF/B filter plate which has been pretreated with 0.5% PEI for at least one hour. The plate is vacuum filtered and washed with 7 washes of 100 ul/well of 50 mM Tris-Cl, pH 7.5, 120 mM NaCl, 5 mM KCl chilled to 4° C. The filtration and washing is completed in less than 90 s. The plates are air-dried overnight, 12 ul/well of MicroScint scintillation fluid added, and the plates counted in a Trilux.
(§2) Data analysis. The raw data are normalized to percent inhibition using control wells defining 0% (DMSO only) and 100% (selective inhibitor) inhibition which are run on each plate. Each plate is run in triplicate, and the concentration response curve thus generated is fit using the four-parameter dose response equation, Y=Bottom+(Top-Bottom)/(1+10^((LogIC50−X)*HillSlope)) in order to determine the IC50 value for each compound. The radioligand concentration chosen for each assay corresponds to the Kd concentration determined through saturation binding analysis for each assay.

The target in a further test is T1, NK-1 (Homo sapiens, UniProt P25103).
T1 construct: 30 ul/well of a 2×U373 membrane preparation
T1 sequence (P25103 whole entry): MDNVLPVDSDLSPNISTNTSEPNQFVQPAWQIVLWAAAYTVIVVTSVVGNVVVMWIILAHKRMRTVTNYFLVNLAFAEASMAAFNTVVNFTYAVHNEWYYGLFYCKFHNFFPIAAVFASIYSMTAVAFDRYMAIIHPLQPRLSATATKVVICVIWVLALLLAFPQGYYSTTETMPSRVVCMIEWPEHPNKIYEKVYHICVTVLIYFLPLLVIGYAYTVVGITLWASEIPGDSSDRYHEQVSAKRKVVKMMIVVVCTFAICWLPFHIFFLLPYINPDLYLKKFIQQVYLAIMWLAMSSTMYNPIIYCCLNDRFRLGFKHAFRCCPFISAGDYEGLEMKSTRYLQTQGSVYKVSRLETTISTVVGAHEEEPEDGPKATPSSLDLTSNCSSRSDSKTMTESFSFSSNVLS
Put plainly: NK1 radioligand binding assay ([125I]Substance P, U373 membranes). To be noted: U373 cell membranes, 200 pM [125I]Substance P, 1 hour at room temperature. Here is the method:
as §1
NK1 radioligand binding assay. Compounds are dissolved in 100% DMSO at a concentration 100× the desired highest assay concentration, serially diluted 1:3 in 100% DMSO, and 0.6 ul/well of each solution is dispensed to a Nunc polypropylene, round bottom, 384 well plate. 100% inhibition is defined with 0.6 ul/well of 1 mM L-733,060 (Sigma L-137) dissolved in DMSO. 30 ul/well of a 2×U373 membrane preparation (267 ug/ml in 100 mM Tris-Cl, pH 7.5, 6 mM MgCl2, 0.2% (v/v) Sigma mammalian protease inhibitor cocktail (Sigma P-8340), and 4 ug/ml chymostatin, Sigma C-7268) and 30 ul/well of a 2× radioligand solution (400 pM [^125I]Substance P (Perkin ElmerNEX-190) in 1% (w/v) BSA (Sigma A-2153), 0.1 mg/ml bacitracin, Sigma B-0125) are added to the well and the reaction incubated for 1 hour at room temperature. The contents of the assay plate are then transferred to a Millipore MultiscreenHTS GF/B filter plate which has been pretreated with 0.5% PEI for at least one hour. The plate is vacuum filtered and washed with 7 washes of 100 ul/well of 20 mM Tris-Cl, pH 7.5, 0.5% (w/v) BSA chilled to 4° C. The filtration and washing is completed in less than 90 s. The plates are air-dried overnight, 12 ul/well of MicroScint scintillation fluid added, and the plates counted in a Trilux.
as §2

Sequence of hSERT (P31645 whole entry): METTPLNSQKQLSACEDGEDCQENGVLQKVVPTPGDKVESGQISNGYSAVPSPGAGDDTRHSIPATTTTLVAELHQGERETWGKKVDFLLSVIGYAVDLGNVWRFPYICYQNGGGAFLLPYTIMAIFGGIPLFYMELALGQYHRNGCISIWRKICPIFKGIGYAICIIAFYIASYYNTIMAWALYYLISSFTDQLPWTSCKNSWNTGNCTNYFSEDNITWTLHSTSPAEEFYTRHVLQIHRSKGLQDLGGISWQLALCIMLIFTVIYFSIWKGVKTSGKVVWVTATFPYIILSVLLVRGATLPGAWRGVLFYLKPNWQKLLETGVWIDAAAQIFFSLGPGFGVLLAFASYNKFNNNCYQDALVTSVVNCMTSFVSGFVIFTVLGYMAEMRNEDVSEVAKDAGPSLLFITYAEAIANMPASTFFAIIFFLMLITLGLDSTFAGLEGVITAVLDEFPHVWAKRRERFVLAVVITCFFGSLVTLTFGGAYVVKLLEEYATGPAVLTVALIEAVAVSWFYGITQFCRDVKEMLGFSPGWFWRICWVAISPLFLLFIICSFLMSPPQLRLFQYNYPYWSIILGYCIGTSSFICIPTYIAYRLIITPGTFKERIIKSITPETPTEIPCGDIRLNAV

By pIC50 is commonly meant the negative decadic logarithm of the IC50, by convention in mol/L. `CC(OCC1(c2ccc(F)cc2)CCNCC1)c1cc(C(F)(F)F)cc2cnn(C)c12` (single isomer, unassigned) [Example 26, 7-(1-((4-(4-Fluorophenyl)piperidin-4-yl)methoxy)ethyl)-1-methyl-5-(trifluoromethyl)-1H-indazole]: the pIC50 on hSERT is 7.00 to 11.00; on NK-1 it was 6.52 to 7.00.
As to `CC(OCC1(c2ccc(F)cc2)CCN(C)CC1)c1cc(C(F)(F)F)cc2cnn(C)c12` (single isomer, unassigned) [Example 27, 7-(1-((4-(4-Fluorophenyl)-1-methylpiperidin-4-yl)methoxy)ethyl)-1-methyl-5-(trifluoromethyl)-1H-indazole], the figures for the pIC50 at hSERT and on NK-1 were 7.00 to 11.00 and 6.52 to 7.00, respectively.
The like results for `CC(OCC1(c2ccc(F)cc2)CCNCC1)c1cc(C(F)(F)F)cc2cn(C)nc12` (single isomer, unassigned) [Example 28, 7-(1-((4-(4-Fluorophenyl)piperidin-4-yl)methoxy)ethyl)-2-methyl-5-(trifluoromethyl)-2H-indazole] were, in that order, 6.52 to 7.00 and below 6.52.
With `CC(OCC1(c2ccc(F)cc2)CCN(C)CC1)c1cc(C(F)(F)F)cc2cn(C)nc12` (single isomer, unassigned) [Example 29, 7-(1-((4-(4-Fluorophenyl)-1-methylpiperidin-4-yl)methoxy)ethyl)-2-methyl-5-(trifluoromethyl)-2H-indazole], the pIC50 is 7.00 to 11.00 at hSERT and below 6.52 on NK-1.
The like results for `CC(OCC1(c2ccc(F)cc2)CCNCC1)c1cc(C(F)(F)F)cc2cnn(C)c12` (single isomer, unassigned) [Example 30, 7-(1-((4-(4-Fluorophenyl)piperidin-4-yl)methoxy)ethyl)-1-methyl-5-(trifluoromethyl)-1H-indazole] were, in that order, 7.00 to 11.00 and 7.00 to 11.00.
For `CC(OCC1(c2ccc(F)cc2)CCN(C)CC1)c1cc(C(F)(F)F)cc2cnn(C)c12` (single isomer, unassigned) [Example 31, 7-(1-((4-(4-Fluorophenyl)-1-methylpiperidin-4-yl)methoxy)ethyl)-1-methyl-5-(trifluoromethyl)-1H-indazole] the same measures were 7.00 to 11.00 and 7.00 to 11.00.
The like results for `CC(OCC1(c2ccc(F)cc2)CCNCC1)c1cc(C(F)(F)F)cc2cn(C)nc12` (single isomer, unassigned) [Example 32, 7-(1-((4-(4-Fluorophenyl)piperidin-4-yl)methoxy)ethyl)-2-methyl-5-(trifluoromethyl)-2H-indazole] were, in that order, 7.00 to 11.00 and 7.00 to 11.00.
For `CC(OCC1(c2ccc(F)cc2)CCN(C)CC1)c1cc(C(F)(F)F)cc2cn(C)nc12` (single isomer, unassigned) [Example 33, 7-(1-((4-(4-Fluorophenyl)-1-methylpiperidin-4-yl)methoxy)ethyl)-2-methyl-5-(trifluoromethyl)-2H-indazole], the pIC50 at hSERT and on NK-1 was 7.00 to 11.00 throughout.
For orientation: IC50 means the concentration at which inhibition is half-maximal. For the compound `CC(OCC1(c2ccc(F)cc2)CCN(C)CC1)c1cc(C2CC2)cc2c(Cl)n[nH]c12` (single isomer, unassigned) [Example 54], the IC50 on hSERT (SERT IC50 (nM)) was 0.01 to 100 nM. Moreover, the negative-log IC50 (pIC50) at NK-1 was 7.00 to 11.00.
In the case of `CC(OCC1(c2ccc(F)cc2)CCN(C)CC1)c1cc(C(F)(F)F)cc2ccn(C)c12` (single isomer, unassigned) [Example 74, 7-(1-((4-(4-Fluorophenyl)-1-methylpiperidin-4-yl)methoxy)ethyl)-1-methyl-5-(trifluoromethyl)-1H-indole], the pIC50 on hSERT is 6.52 to 7.00; on NK-1 it was below 6.52.
As to `CC(OCC1(c2ccc(F)cc2)CCN(C)CC1)c1cc(C(F)(F)F)cc2ccn(C)c12` (single isomer, unassigned) [Example 75, 7-(1-((4-(4-Fluorophenyl)-1-methylpiperidin-4-yl)methoxy)ethyl)-1-methyl-5-(trifluoromethyl)-1H-indole], the pIC50 at hSERT and on NK-1 was 7.00 to 11.00 in each case.
For `CC(OCC1(c2ccccc2)CCN(C)CC1)c1cc(Br)cc2c1ncn2CC1CC1` (single isomer, unassigned) [Example 130], the pIC50 was 7.00 to 11.00 at hSERT and below 6.52 at NK-1.
In the case of `CC(OCC1(c2ccccc2)CCN(C)CC1)c1cc(Br)cc2c1ncn2CC1CC1` (single isomer, unassigned) [Example 131], the pIC50 on hSERT and at NK-1 was 7.00 to 11.00 in each case.
For the compound `CC(OCC1(c2ccc(F)cc2)CCN(C)CC1)c1cc(C(F)(F)F)cc2c1ncn2CC1CC1` (single isomer, unassigned) [Example 133], the results for the pIC50 at hSERT and at NK-1 were 7.00 to 11.00 and below 6.52, respectively.
For the compound `CC(OCC1(c2ccc(F)cc2)CCN(C)CC1)c1cc(C(F)(F)F)cc2c1ncn2CC1CC1` (single isomer, unassigned) [Example 134], the negative-log IC50 (pIC50) on hSERT and at NK-1 was 7.00 to 11.00 in each case.
Take `CCn1cnc2c(C(C)OCC3(c4ccc(F)cc4)CCN(C)CC3)cc(C(F)(F)F)cc21` (single isomer, unassigned) [Example 135]: the pIC50 at hSERT was 7.00 to 11.00; on NK-1, below 6.52.
For `CCn1cnc2c(C(C)OCC3(c4ccc(F)cc4)CCN(C)CC3)cc(C(F)(F)F)cc21` (single isomer, unassigned) [Example 136] the same measures were 7.00 to 11.00 and 7.00 to 11.00.
For `CCn1cnc2c(C(C)OCC3(c4ccccc4)CCN(C)CC3)cc(C(F)(F)F)cc21` (single isomer, unassigned) [Example 137] the same measures were 7.00 to 11.00 and 6.52 to 7.00.
For `Cc1cc(COCC2(c3ccccc3)CCNCC2)cc2cn[nH]c12` [Example 1, 7-Methyl-5-(((4-phenylpiperidin-4-yl)methoxy)methyl)-1H-indazole] the same measures were 7.00 to 11.00 and below 6.52.
As for `Brc1cc(COCC2(c3ccccc3)CCNCC2)c2[nH]ncc2c1` [Example 2, 5-Bromo-7-(((4-phenylpiperidin-4-yl)methoxy)methyl)-1H-indazole], the pIC50 on hSERT and at NK-1 was 7.00 to 11.00 each time.
In the case of `N#Cc1ccc(-c2cc(COCC3(c4ccccc4)CCNCC3)c3[nH]ncc3c2)cc1` [Example 3, 4-(7-(((4-Phenylpiperidin-4-yl)methoxy)methyl)-1H-indazol-5-yl)benzonitrile], the negative-log IC50 (pIC50) at hSERT and on NK-1 was 7.00 to 11.00 in each case.
On to `Cn1ncc2cc(-c3ccc(C#N)cc3)cc(COCC3(c4ccccc4)CCNCC3)c21` [Example 4, 4-(1-Methyl-7-(((4-phenylpiperidin-4-yl)methoxy)methyl)-1H-indazol-5-yl)benzonitrile], for which the pIC50 was 7.00 to 11.00 at hSERT and 6.52 to 7.00 on NK-1.
